# Experimental data as given in patent publication US5523223A, “Ketoester reductase for conversion of keto acid esters to optically active hydroxy acid esters” (priority 1992, dated 1996).
# “Also recorded” adds a separate entry of the source.
# Columns and labels:
# KERed from Y. cellobiosa = test: Screening of crude extract for ketoester reductase activity (photometric NAD(P)H decrease); format: biochemical, Yarrowinia cellobiosa; conditions: 8 mM ketoester, TEA-NaOH buffer pH 7, mU/mg protein; for NADH dependent specific activity: 0.2 mM NADH; for NADPH-dependent specific activity: 0.2 mM NADPH
# Description: (§1) For screening collection strains of the DSM (German Collection of Microorganisms and Cell Cultures, Braunschweig) is cultured in the DSM recommended medium, the cell mass is harvested by centrifugation and disintegrated by wet milling. A permanent deposit of Candida parapsilosis DSM 70125 has been deposited on 29 Mar. 1979 in accordance with the requirements of the Budapest Treaty. The address of the depository is as follows: German Collection of Microorganisms and Cell Cultures, DSM-Mascheroder Weg 1B, Braunschweig, Germany. The supernatant served as the enzyme source (crude extract) and was investigated for ketoester reductase activity. The test was carried out photometrically and the test mixture contained the following components.
# (§2) 0.1M triethanoleamine (TEA)-NaOH-Buffer, pH 7
# (§3) Limited amounts of the crude extract.
# (§4) The NAD(P)H-decrease at 334nm over a period of 1 minute was followed: For activity calculation, an absorption coefficient of […] was used. […] One U (unit) corresponds to the consumption and conversion of 1 μmole of reduced coenzyme per minute.
# [1] = tested on: KERed from Candida parapsilosis; test: Kinetic characterization of the KERed; format: biochemical; conditions: partially purified enzyme; for Vmax: referred to 2-butanone
# [2] = tested on: KERed from P. acidovorans; test: Screening of crude extract for ketoester reductase activity (photometric NAD(P)H decrease); format: biochemical, Pseudomonas acidovorans; conditions: 8 mM ketoester, TEA-NaOH buffer pH 7, mU/mg protein; for NADH dependent specific activity: 0.2 mM NADH
# Description: as §1, §2, §3, §4
# [3] = tested on: KERed from R. erythropolis; test: as above; format: biochemical, Rhodococcus erythropolis; conditions: 0.2 mM NADH, 8 mM ketoester, TEA-NaOH buffer pH 7, mU/mg protein
# Description: as §1, §2, §3, §4
# [4] = tested on: KERed from C. parapsilosis; test: as above; format: biochemical, Candida parapsilosis; conditions: 8 mM ketoester, TEA-NaOH buffer pH 7, mU/mg protein; for NADH dependent specific activity: 0.2 mM NADH; for NADPH-dependent specific activity: 0.2 mM NADPH
# Description: as §1, §2, §3, §4
# [5] = tested on: KERed from C. parapsilosis; test: Inhibition study of the KERed (influence of metal cations and reagents); format: biochemical, Candida parapsilosis; conditions: for Influence on KERed activity (in words): summary statements of the inhibition study
# Excerpt: For the following investigation, partially purified enzyme (after Q-sepharose chromatography, 67-times enrichment) was used. […]
# 5-oxohexanoic acid ethyl ester
# TEA-NaOH-buffer, 0.1 M; pH 7.9
# The influence of various metal cations and reagents upon the enzymatic activity was investigated in tests in which the test preparation described under example 3.B was used.
# [6] = compound 0.1 mM, 35 mM 5-oxohexanoic acid ethyl ester, 0.2 mM NADH, pH 7.9
# [7] = compound 1.0 mM, 35 mM 5-oxohexanoic acid ethyl ester, 0.2 mM NADH, pH 7.9
compound,measurement,setting,value
"CCOC(=O)CC(C)=O [AEEE, acetoacetic acid ethyl ester]",NADH dependent specific activity,KERed from Y. cellobiosa,103.1 mU/mg
same,NADPH-dependent specific activity,KERed from Y. cellobiosa,5.0 mU/mg
same,Km,[1],122 µM
same,Vmax,[1],79%
same,NADH dependent specific activity,[2],49.0 mU/mg
same,NADH dependent specific activity,[3],153.0 mU/mg
"CCCC(=O)CC(=O)OCC [BEEE, butyrylacetic acid ethy ester]",NADH dependent specific activity,KERed from Y. cellobiosa,20.3 mU/mg
same,NADH dependent specific activity,[4],49.0 mU/mg
same,NADPH-dependent specific activity,[4],25.0 mU/mg
same,Km,[1],1300 µM
same,Vmax,[1],5%
same,NADH dependent specific activity,[2],11.6 mU/mg
same,NADPH-dependent specific activity,[2]; 0.2 mM NADPH,15.6 mU/mg
same,NADH dependent specific activity,[3],3.0 mU/mg
CCO [Ethanol],Residual Activity,[5]; Ethanol 5%,30%
same,Km,[1],3400 µM
same,Vmax,[1],42%
"CCOC(=O)CCC(C)=O [LSEE, levulinic acid ethyl ester]",NADH dependent specific activity,KERed from Y. cellobiosa,41.1 mU/mg
same,NADPH-dependent specific activity,KERed from Y. cellobiosa,4.0 mU/mg
same,NADH dependent specific activity,[4],85.1 mU/mg
same,NADPH-dependent specific activity,[4],1.3 mU/mg
same,Km,[1],1730 µM
same,Vmax,[1],12%
same,NADH dependent specific activity,[2],4.1 mU/mg
same,NADH dependent specific activity,[3],87.1 mU/mg
CC(=O)C=O [Methylglyoxal],Residual Activity,[5]; [6],100%
same,Residual Activity,[5]; [7],34%
[Mg+2] [Mg^2+],Residual Activity,[5]; [6],91%
same,Residual Activity,[5]; [7],82%
[Mn+2] [Mn^2+],Residual Activity,[5]; [6],84%
same,Residual Activity,[5]; [7],80%
CCN1C(=O)C=CC1=O [N-ethylmaleimide],Residual Activity,[5]; [6],70%
same,Residual Activity,[5]; [7],47%
[Ni+2] [Ni^2+],Residual Activity,[5]; [6],10%
same,Residual Activity,[5]; [7],0%
same,Influence on KERed activity (in words),[5],Rapid deactivation
[Pb+2] [Pb^2+],Residual Activity,[5]; [6],0%
same,Residual Activity,[5]; [7],0%
same,Influence on KERed activity (in words),[5],Rapid deactivation
Cl.NCCc1ccc(S(=O)(=O)F)cc1 [Pefabloc],Residual Activity,[5]; [7],100%
[Sn+2] [Sn^2+],Residual Activity,[5]; [6],73%
same,Residual Activity,[5]; [7],0%
same,Influence on KERed activity (in words),[5],Rapid deactivation
[Zn+2] [Zn^2+],Residual Activity,[5]; [6],24%
same,Residual Activity,[5]; [7],0%
c1cnc2c(c1)ccc1cccnc12 [o-Phenanthroline],Residual Activity,[5]; [6],26%
same,Influence on KERed activity (in words),[5],relatively strongly inhibited; also recorded: Strong inhibition
O=C(O)c1cc[c]([Hg+])cc1.[OH-] [p-Hydroxymercuribenzoate],Residual Activity,[5]; [6],0%
same,Residual Activity,[5]; [7],0%
same,Influence on KERed activity (in words),[5],Strong inhibition
Triton X-100,Residual Activity,[5]; Triton X-100 0.1%,100%
